The experiment deals with T1, Human thrombin (Homo sapiens, UniProt P00734).
T1 construct: purchased Haematologic Technologies Inc
Briefly: Thrombin protease activity inhibition, chromogenic substrate S-2238. The experiment is classed as biochemical. The settings on record: 3 nM thrombin, 125 μM S-2238, 10 min pre-incubation, RT. As for the experimental part:
The thrombin activity reported herein (e.g., Table A) was obtained as follows. […] Thrombin was assayed in buffer containing 0.05 M Tris (pH 7.4), 0.015 M NaCl and 0.01% PEG-8000. The final concentration of enzyme used was 3 nM thrombin. […] All assays were performed in 96-well microtiter plates at room temperature (RT). […] Inhibitor IC50 values were determined by adding test compound as ten point, three-fold serial dilutions in buffer solution, as known in the art. The plate was read at 10 minutes after substrate addition. The IC50 was calculated by plotting the percent (%) inhibition against compound concentration and fitting the data to a constrained four parameter sigmoidal curve, as known in the art.

Each structure is given as a SMILES string.

This note sets out measurements from patent US10532995B2, “Substituted pyrazole compounds as serine protease inhibitors” (VERSEON CORPORATION, priority 2015, dated 2020).

As a reminder, the IC50 is the point on the concentration scale where inhibition reaches its midpoint. Low values mean greater potency in that assay, high ones weaker potency in that assay.

Molecule `COc1ccccc1C(=O)n1nc(C2CCCN(C(=O)OC(C)(C)C)C2)cc1NCc1ccc(Cl)s1` (stereo not shown) [Entry 281, tert-butyl 3-(5-[(5-chlorothiophen-2-yl)methyl]amino-1-(2-methoxybenzoyl)-1H-pyrazol-3-yl)piperidine-1-carboxylate] displayed an IC50 of under 100 nM.
With `CS(=O)(=O)N1CCC(c2cc(NCc3ccc(Cl)s3)[nH]n2)CC1` [Entry 173, N-[(5-chlorothiophen-2-yl)methyl]-3-(1-methanesulfonylpiperidin-4-yl)-1H-pyrazol-5-amine] the figure was over 100000 nM; with `Clc1ccc(CNc2cc(C3CCN(CC4CC4)CC3)n[nH]2)s1` [Entry 201, N-[(5-chlorothiophen-2-yl)methyl]-3-[1-(cyclopropylmethyl)piperidin-4-yl]-1H-pyrazol-5-amine], over 100000 nM; with `COc1ccccc1C(=O)n1nc(C2(C)CCN(C(=O)OC(C)(C)C)CC2)cc1NCc1ccc(Cl)s1` [Entry 294, tert-butyl 4-(5-[(5-chlorothiophen-2-yl)methyl]amino-1-(2-methoxybenzoyl)-1H-pyrazol-3-yl)-4-methylpiperidine-1-carboxylate], under 100 nM.
`CC(C)(C)OC(=O)N1CCC(C)(c2cc(NCc3ccc(Cl)s3)n(C(=O)C3(C)CCOCC3)n2)CC1` [Entry 299, tert-butyl 4-(5-[(5-chlorothiophen-2-yl)methyl]amino-1-(4-methyloxane-4-carbonyl)-1H-pyrazol-3-yl)-4-methylpiperidine-1-carboxylate] registered an IC50 of under 100 nM.
For `COC(C)(C)C(=O)n1nc(C2CCNCC2)c(F)c1NCc1ccc(Cl)s1` [Entry 86, 1-(5-[(5-chlorothiophen-2-yl)methyl]amino-4-fluoro-3-(piperidin-4-yl)-1H-pyrazol-1-yl)-2-methoxy-2-methylpropan-1-one] the value was 100 to 1000 nM; for `CC(C)(C)C(=O)n1nc(C2(C)CCCNC2=O)cc1NCc1ccc(Cl)s1` (stereo not shown) [Entry 115, 3-(5-[(5-chlorothiophen-2-yl)methyl]amino-1-(2,2-dimethylpropanoyl)-1H-pyrazol-3-yl)-3-methylpiperidin-2-one], 100 to 1000 nM; for `O=C(N1CCOCC1)N1CCC(c2cc(NCc3ccc(Cl)s3)[nH]n2)C1` (stereo not shown) [Entry 206, N-[(5-chlorothiophen-2-yl)methyl]-3-[1-(morpholine-4-carbonyl)pyrrolidin-3-yl]-1H-pyrazol-5-amine], over 100000 nM.
With `CC(C)(C)OC(=O)N1CCC(c2cc(NCc3ccc(Cl)s3)[nH]n2)CC1` [Entry 302, tert-butyl 4-(5-[(5-chlorothiophen-2-yl)methyl]amino-1H-pyrazol-3-yl)piperidine-1-carboxylate] the figure was over 100000 nM.
For `COCC(C)(C)C(=O)n1nc(C2(C)CCN(C(=O)OC(C)(C)C)CC2)cc1NCc1ccc(Cl)s1` [Entry 298, tert-butyl 4-(5-[(5-chlorothiophen-2-yl)methyl]amino-1-(3-methoxy-2,2-dimethylpropanoyl)-1H-pyrazol-3-yl)-4-methylpiperidine-1-carboxylate] the value was under 100 nM; for `COc1ccc(C(=O)n2nc(C3CCCN3)cc2NCc2ccc(Cl)s2)c(OC)c1` (stereo not shown) [Entry 148, N-[(5-chlorothiophen-2-yl)methyl]-1-(2,4-dimethoxybenzoyl)-3-(pyrrolidin-2-yl)-1H-pyrazol-5-amine], under 100 nM.
On to `O=C(N1CCOCC1)N1CCC(c2cc(NCc3ccc(Cl)s3)[nH]n2)CC1` [Entry 203, N-[(5-chlorothiophen-2-yl)methyl]-3-[1-(morpholine-4-carbonyl)piperidin-4-yl]-1H-pyrazol-5-amine], for which the IC50 was over 100000 nM.
Consider `CC1(C(=O)n2nc(C3(C)CCNC3=O)cc2NCc2ccc(Cl)s2)CCOCC1` (stereo not shown) [Entry 122, 3-(5-[(5-chlorothiophen-2-yl)methyl]amino-1-(4-methyloxane-4-carbonyl)-1H-pyrazol-3-yl)-3-methylpyrrolidin-2-one], for which the IC50 lay in the range of 100 to 1000 nM.
With `CC(C)(C)C(=O)n1nc(C2CC3CCC(C2)N3S(C)(=O)=O)cc1NCc1ccc(Cl)s1` (stereo not shown) [Entry 81, 1-(5-[(5-chlorothiophen-2-yl)methyl]amino-3-8-methanesulfonyl-8-azabicyclo[3.2.1]octan-3-yl-1H-pyrazol-1-yl)-2,2-dimethylpropan-1-one] the figure was under 100 nM.
With `CC1(C(=O)n2nc(C3(C)CCCNC3=O)cc2NCc2ccc(Cl)s2)CCOCC1` (stereo not shown) [Entry 121, 3-(5-[(5-chlorothiophen-2-yl)methyl]amino-1-(4-methyloxane-4-carbonyl)-1H-pyrazol-3-yl)-3-methylpiperidin-2-one] the figure was 1000 to 10000 nM; with `Clc1ccc(CNc2cc(C3CCCO3)n[nH]2)s1` (stereo not shown) [Entry 184, N-[(5-chlorothiophen-2-yl)methyl]-3-(oxolan-2-yl)-1H-pyrazol-5-amine], over 100000 nM; with `CN(C)S(=O)(=O)N1CCC(c2cc(NCc3ccc(Cl)s3)n(C(=O)C(C)(C)CO)n2)CC1` [Entry 135, 4-(5-[(5-chlorothiophen-2-yl)methyl]amino-1-(3-hydroxy-2,2-dimethylpropanoyl)-1H-pyrazol-3-yl)-N,N-dimethylpiperidine-1-sulfonamide], under 100 nM.
With `C=CCOC(=O)N1CCCC1c1cc(NCc2ccc(Cl)s2)n(C(=O)c2cscn2)n1` (stereo not shown) [Entry 243, prop-2-en-1-yl 2-(5-[(5-chlorothiophen-2-yl)methyl]amino-1-(1,3-thiazole-4-carbonyl)-1H-pyrazol-3-yl)pyrrolidine-1-carboxylate], the IC50 is under 100 nM.
As to `CC1(C(=O)n2nc(C3(C)CCCNC3)cc2NCc2ccc(Cl)s2)CCOCC1` (stereo not shown) [Entry 162, N-[(5-chlorothiophen-2-yl)methyl]-1-(4-methyloxane-4-carbonyl)-3-(3-methylpiperidin-3-yl)-1H-pyrazol-5-amine], the IC50 lay within 1000 to 10000 nM.
For `CC(C)(C)OC(=O)N1CCC(c2cc(NCc3ccc(Cl)s3)n(C(=O)C(C)(C)C)n2)CC1` [Entry 292, tert-butyl 4-(5-[(5-chlorothiophen-2-yl)methyl]amino-1-(2,2-dimethylpropanoyl)-1H-pyrazol-3-yl)piperidine-1-carboxylate] the value was under 100 nM; for `COc1ccccc1C(=O)n1nc(C2(C)CCCNC2=O)cc1NCc1ccc(Cl)s1` (stereo not shown) [Entry 117, 3-(5-[(5-chlorothiophen-2-yl)methyl]amino-1-(2-methoxybenzoyl)-1H-pyrazol-3-yl)-3-methylpiperidin-2-one], 100 to 1000 nM.
The molecule `C=CCOC(=O)N1CCC(c2cc(NCc3ccc(Cl)s3)n(C(=O)C(C)(C)C)n2)CC1` [Entry 262, prop-2-en-1-yl 4-(5-[(5-chlorothiophen-2-yl)methyl]amino-1-(2,2-dimethylpropanoyl)-1H-pyrazol-3-yl)piperidine-1-carboxylate] came in with an IC50 of under 100 nM.
`C=CCOC(=O)N1CCC(c2n[nH]c(NCc3ccc(Cl)s3)c2F)CC1` [Entry 269, prop-2-en-1-yl 4-(5-[(5-chlorothiophen-2-yl)methyl]amino-4-fluoro-1H-pyrazol-3-yl)piperidine-1-carboxylate] showed an IC50 of over 100000 nM.
For `CC(C)(C)OC(=O)N1CCCC(c2cc(NCc3ccc(Cl)s3)n(C(=O)C(C)(C)CO)n2)C1` (stereo not shown) [Entry 283, tert-butyl 3-(5-[(5-chlorothiophen-2-yl)methyl]amino-1-(3-hydroxy-2,2-dimethylpropanoyl)-1H-pyrazol-3-yl)piperidine-1-carboxylate] the value was under 100 nM; for `O=S(=O)(N1CCOCC1)N1CCC(c2cc(N(Cc3ccc(Cl)s3)S(=O)(=O)N3CCOCC3)[nH]n2)CC1` [Entry 238, N-[(5-chlorothiophen-2-yl)methyl]-N-3-[1-(morpholine-4-sulfonyl)piperidin-4-yl]-1H-pyrazol-5-ylmorpholine-4-sulfonamide], 1000 to 10000 nM.
With `Clc1ccc(CNc2cc(C3CCN(Cc4ncon4)CC3)n[nH]2)s1` [Entry 191, N-[(5-chlorothiophen-2-yl)methyl]-3-[1-(1,2,4-oxadiazol-3-ylmethyl)piperidin-4-yl]-1H-pyrazol-5-amine] the figure was over 100000 nM.
For `O=C(c1ccoc1)n1nc(C2CNC2)cc1NCc1ccc(Cl)s1` [Entry 128, 3-(azetidin-3-yl)-N-[(5-chlorothiophen-2-yl)methyl]-1-(furan-3-carbonyl)-1H-pyrazol-5-amine; trifluoroacetic acid] the value was 1000 to 10000 nM; for `C=CCOC(=O)N1CCN(S(C)(=O)=O)CC1c1cc(NCc2ccc(Cl)s2)n(C(=O)C(C)(C)C)n1` (stereo not shown) [Entry 246, prop-2-en-1-yl 2-(5-[(5-chlorothiophen-2-yl)methyl]amino-1-(2,2-dimethylpropanoyl)-1H-pyrazol-3-yl)-4-methanesulfonylpiperazine-1-carboxylate], over 100000 nM.
On to `C=CCOC(=O)N1CCN(C(=O)N2CCOCC2)CC1c1cc(NCc2ccc(Cl)s2)n(C(=O)C(C)(C)C)n1` (stereo not shown) [Entry 244, prop-2-en-1-yl 2-(5-[(5-chlorothiophen-2-yl)methyl]amino-1-(2,2-dimethylpropanoyl)-1H-pyrazol-3-yl)-4-(morpholine-4-carbonyl)piperazine-1-carboxylate], for which the IC50 fell in the range of 1000 to 10000 nM.
With `O=C(CN1CCC(c2cc(NCc3ccc(Cl)s3)[nH]n2)CC1)N1CCOCC1` [Entry 111, 2-[4-(5-[(5-chlorothiophen-2-yl)methyl]amino-1H-pyrazol-3-yl)piperidin-1-yl]-1-(morpholin-4-yl)ethan-1-one] the figure was over 100000 nM.
For `O=C(c1ccsc1)n1nc(C2CCCNC2)cc1NCc1ccc(Cl)s1` (stereo not shown) [Entry 185, N-[(5-chlorothiophen-2-yl)methyl]-3-(piperidin-3-yl)-1-(thiophene-3-carbonyl)-1H-pyrazol-5-amine] the value was 100 to 1000 nM.
